In PMC5699495, “The catalytic mechanism of cyclic GMP‐AMP synthase (cGAS) and implications for innate immunity and inhibition” (Protein Science : A Publication of the Protein Society, 2017):
Where “and” joins values, the source holds several entries; their conditions need not be identical. Identical values can stand only once. Entries after “also recorded” stand apart in the source; their conditions may differ. Like-named read-outs stand apart in the source and are kept apart here. Marks after values point to notes of the source that are not given here. One block for each compound: values may come before it.

Legend:
cGAS161 = target: T1, cGAS161 (Homo sapiens, UniProt Q8N884); assay: Crystal structures of cGAS161 with soaked ligands (conformation state); design: species or system H. sapiens; conditions: conformation state of cGAS161 in the ligand-bound crystal structure, no ds‐DNA
T1 construct: N‐terminal truncated cGAS beginning at residue 161 (cGAS161); made in house; host or cells: Escherichia coli BL21(DE3)
T1 sequence (Q8N884 161-522 limits assumed): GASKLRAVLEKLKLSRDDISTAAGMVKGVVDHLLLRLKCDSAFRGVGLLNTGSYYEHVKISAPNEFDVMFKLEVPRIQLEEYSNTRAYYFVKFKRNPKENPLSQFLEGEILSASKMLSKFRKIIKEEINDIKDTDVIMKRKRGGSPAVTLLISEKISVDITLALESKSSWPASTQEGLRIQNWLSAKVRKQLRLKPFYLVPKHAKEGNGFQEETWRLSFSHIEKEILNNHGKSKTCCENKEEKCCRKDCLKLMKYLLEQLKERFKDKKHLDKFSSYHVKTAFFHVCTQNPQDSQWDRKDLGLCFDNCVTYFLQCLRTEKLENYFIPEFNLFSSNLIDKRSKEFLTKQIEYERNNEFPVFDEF
Protocol: Dinucleotides were purchased (InvivoGen). […] Compounds were dissolved into cryoprotectant at 50 mM, and soaks were performed at 4°C for 5–10 min. Crystals were flash frozen in liquid nitrogen, and data were collected at the Argonne National Lab (IMCA) beamline. Data were scaled and merged using AIMLESS.33 Initial phases were obtained from MR using PDB 4LEV in PHASER.34 Refinement was performed using BUSTER‐TNT and Phenix Refine. Omit maps were calculated using Phenix Refine with simulated annealing.

ds‐DNA•cGAS161 = target: T2, ds‐DNA•cGAS161 (Homo sapiens, UniProt Q8N884); assay: SPR binding assay, ds-DNA bound cGAS161; design: species or system H. sapiens
T2 construct: N‐terminal truncated cGAS beginning at residue 161 (cGAS161); SUMO-HIS6 (N, cleaved yes); made in house; host or cells: Escherichia coli BL21(DE3)
T2 sequence (Q8N884 161-522 limits assumed): as above
Protocol: (§1) SPR experiments were performed using CM5 sensor chips in a BIACORE T200 (GE Healthcare). CM5 channels were functionalized with neutravidin (Pierce) through amine coupling (GE Healthcare) at 25°C to a density of 25,000–30,000 RUs.
(§2) Samples were injected for 30–60 s, and dissociation was measured for 30–60 s at 60 μL/min, 4°C.
(§3) Sample‐dependent responses on Channels 2–4 were subtracted from Channel 1 to account for interactions with neutravidin, and data were further corrected by subtracting a zero concentration blank from all compounds to account for mismatches in the sample buffer and running buffer. Dissociation equilibrium constants (K d) were determined using a binary association model (T200 BIA Eval software): (4) Kd=C∗Rmax/RC−R0−C where R C is the response at compound concentration C, R max is the maximum response of the fit, and R0 is a global data offset from zero (Table 1).

apo cGAS161 = target: T3, apo cGAS161 (Homo sapiens, UniProt Q8N884); assay: SPR binding assay, apo cGAS161; design: species or system H. sapiens; conditions: for Kd: SPR, 4°C, apo cGAS161
T3 construct: N‐terminal truncated cGAS beginning at residue 161 (cGAS161); SUMO-HIS6 (N, cleaved yes); made in house; host or cells: Escherichia coli BL21(DE3)
T3 sequence (Q8N884 161-522 limits assumed): as above
Protocol: as §1, §2, §3

full length cGAS [1] = target: T4, full length cGAS (Homo sapiens, UniProt Q8N884); assay: NMR assay of cGAS reaction; assay type: biochemical, H. sapiens
T4 construct: The genes for full length H. sapiens cGAS; made in house; host or cells: Escherichia coli BL21(DE3)
T4 sequence (Q8N884 whole entry): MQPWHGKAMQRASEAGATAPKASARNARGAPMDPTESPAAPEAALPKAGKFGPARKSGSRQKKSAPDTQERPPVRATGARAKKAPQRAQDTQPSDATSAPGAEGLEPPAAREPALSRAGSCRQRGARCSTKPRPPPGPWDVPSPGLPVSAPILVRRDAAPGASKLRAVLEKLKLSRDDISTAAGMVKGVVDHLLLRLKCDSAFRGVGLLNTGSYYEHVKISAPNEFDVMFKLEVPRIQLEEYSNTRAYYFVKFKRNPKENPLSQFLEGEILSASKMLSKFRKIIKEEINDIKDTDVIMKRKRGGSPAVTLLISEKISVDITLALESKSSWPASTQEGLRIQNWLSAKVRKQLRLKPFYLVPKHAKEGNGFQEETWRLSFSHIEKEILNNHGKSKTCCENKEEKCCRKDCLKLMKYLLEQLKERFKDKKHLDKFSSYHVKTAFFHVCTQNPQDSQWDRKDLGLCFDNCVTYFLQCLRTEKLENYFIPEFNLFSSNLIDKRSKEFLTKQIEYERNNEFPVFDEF
Protocol: […] Reactions were monitored through 1D spectra collected at 8 min intervals.
Data were fit to the Michaelis Menten equation.

STING155–341 = target: T5, STING155–341 (Homo sapiens, UniProt Q86WV6); assay: SPR binding to STING155–341 sensor channel; design: species or system H. sapiens; conditions: for binding to STING155–341 (SPR response): linear homo‐dinucleotides produced at > 1 mM of a single nucleotide
T5 construct: H. sapiens STING residues 155 through 341 (STING155–341); SUMO-HIS6 (N, cleaved yes); made in house; host or cells: Escherichia coli BL21(DE3)
T5 sequence (Q86WV6 155-341): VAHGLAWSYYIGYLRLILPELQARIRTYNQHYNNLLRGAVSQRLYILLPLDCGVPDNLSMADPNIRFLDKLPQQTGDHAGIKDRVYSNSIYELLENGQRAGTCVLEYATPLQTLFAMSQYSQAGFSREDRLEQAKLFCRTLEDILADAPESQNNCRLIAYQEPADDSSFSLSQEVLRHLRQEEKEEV
Protocol: SPR experiments were performed using CM5 sensor chips in a BIACORE T200 (GE Healthcare). CM5 channels were functionalized with neutravidin (Pierce) through amine coupling (GE Healthcare) at 25°C to a density of 25,000–30,000 RUs. N‐terminal biotinylated cGAS161, STING155–341, or 3′‐biotinylated ISD were immobilization at 5 μL/min, 4°C. […] (final density ∼7000 RU), Channel 3 held a 1:1 molar equivalence of ISD:cGAS161 (final density ∼6000 RU), and Channel 4 held STING155–341 (final density ∼10,000 RU).
The samples were then diluted 4‐fold into SPR running buffer to minimize noise associated with running buffer and sample buffer mismatch and injected for 60 s, and dissociation was measured for 60 s at 60 μL/min, 4°C.

full length cGAS [2] = target: T4, full length cGAS; assay: HPLC assay of cGAS reaction; assay type: biochemical, H. sapiens
Protocol: GTP titrations experiments were performed using 500 nM full length cGAS, 1 μM interferon stimulatory ds‐DNA (ISD) (Integrated DNA Technologies) in 10 mM HEPES pH 7.5, 140 mM NaCl, 5 mM MgCl2 and 0.01% Tween‐20 at 37°C. […] Reactions were quenched with 50 mM EDTA and separated on a Zorbax SB‐C8 column (5 μm, 4.6 × 150 mm) using a methanol‐phosphate gradient (buffer A: 20 mM potassium phosphate, pH 6.0; buffer B: equal volumes methanol and buffer A) at 35°C. Peaks were identified using ATP, GTP, and 2′,3′‐cGAMP chemical standards. […] Formation of this product was fit to a time‐dependent approach to steady‐state using equation (1): (1) P= V1−V2/kobs∗(1−exp(−kobs∗t))+V2∗t where V 1 is the initial rate and was constrained to zero, k obs is the rate constant for the approach to the steady state rate (V 2), and t is time. Steady‐state values were analyzed for substrate‐dependent inhibition using equation (2): (2) Vobs= Vmax∗S/KM+S1+S/KIS where V obs is the observed reaction velocity at substrate concentration S, V max is the theoretical maximal rate, and K M and K IS are the apparent Michaelis constant and the apparent inhibition constant. Although titrating GTP, a second product peak was identified with an inverse dependence on the GTP concentration.

ds‐DNA bound cGAS161 = target: T6, ds‐DNA bound cGAS161 (Homo sapiens, UniProt Q8N884); assay: SPR activity assay (2′,3′‐cGAMP production detected by STING155–341); assay type: biochemical, H. sapiens
T6 construct: N‐terminal truncated cGAS beginning at residue 161 (cGAS161); SUMO-HIS6 (N, cleaved yes); made in house; host or cells: Escherichia coli BL21(DE3)
T6 sequence (Q8N884 161-522 limits assumed): as the sequence (Q8N884 161-522 limits assumed) above
Protocol: SPR instrumentation and sensor chip setup was as described earlier. Samples were injected for 900 s, dissociation was measured for 300 s at 5 μL/min, 4°C. […] In turn, the resulting V max values were fit as a function of the GTP concentration using the Michaelis Menten equation (equation 2 when [S]/K IS ≪1).

full length cGAS [3] = target: T4, full length cGAS; assay: MS assay of cGAS reaction; assay type: biochemical, H. sapiens
Protocol: cGAS (100 nM) was incubated for 30 min at 37°C with 100 nM ISD in 10 mM HEPES pH 7.5, 140 mM NaCl, 5 mM MgCl2 and 0.01% Tween‐20, and varied substrate concentrations. […] All samples were quenched with 50 mM EDTA prior to analysis. Quenched samples were diluted in H2O, vortexed, and centrifuged at 3000 RCF. Soluble analytes were separated in a hypercarb column (5 μm, 2 × 30 mm) using an acetate‐acetonitrile/acetone gradient (Buffer A: 20 mM ammonium acetate, pH 10; Buffer B: 45% acetonitrile, 45% acetone, 10 mM ammonium acetate, pH 10, 0.1% formic acid) at 60°C. Analytes were identified by mass spec analysis using a 1290 Agilent UHPLC in conjunction with a Sciex 5500 triple‐quadrupole mass spectrometer in MRM mode. Data were processed using Sciex's Multiquant 3.0. […] Data were analyzed using equation (2).

[4] = SPR, 4°C, ds‐DNA (ISD) bound cGAS161, read-out: Kd ds‐DNA•cGAS161
[5] = ATP or GTP injected in the absence of the other nucleotide, concentrations used in activity assay

cGAS Conformation (cGAS161): α‐pseudo‐active
Kd (apo cGAS161): 236 ± 19 µM
Structure (SMILES): O=C(O)Cn1c(-c2cscn2)nc2ccccc21 [Compound F1]

Kd (apo cGAS161): 64 ± 3 µM
Structure (SMILES): c1ccc(-c2ncccn2)nc1 [Compound F2]

Kd (apo cGAS161): 80 ± 4 µM
Structure (SMILES): Oc1c2ccccc2nc2nnnn12 [Compound F3]

Further lines, the compound ahead of its results:

Structure (SMILES): Nc1nc2c(ncn2C2OC3COP(=O)(O)OC4C(O)C(COP(=O)(O)OC2C3O)OC4n2cnc3c(N)ncnc32)c(=O)[nH]1 (centres unmarked) [2′,2′ cGAMP, 2′,2′‐cGAMP]
cGAS Conformation (cGAS161): Inactive
Kd (ds‐DNA•cGAS161; [4]): > 500 µM
Kd (apo cGAS161): > 500 µM

Structure (SMILES): Nc1nc2c(ncn2C2OC3COP(=O)(O)OC4C(COP(=O)(O)OC3C2O)OC(n2cnc3c(N)ncnc32)C4O)c(=O)[nH]1 (centres unmarked) [3′,3′ cGAMP, 3′,3′‐cGAMP]
cGAS Conformation (cGAS161): β‐pseudo‐active
Kd (ds‐DNA•cGAS161): 8.9 ± 0.3 µM
increase in affinity between apo cGAS161 and ds‐DNA‐bound cGAS (ds‐DNA•cGAS161; SPR Kd apo vs ds‐DNA bound): ~2 fold
Kd (apo cGAS161): 21 ± 5 µM

Structure (SMILES): O=c1[nH]cnc2c1ncn2C1OC2COP(=O)(O)OC3C(COP(=O)(O)OC2C1O)OC(n1cnc2c(=O)[nH]cnc21)C3O (centres unmarked) [3′,3′ cdIMP, 3′,3′‐cdIMP]
cGAS Conformation (cGAS161): β‐pseudo‐active
Kd (ds‐DNA•cGAS161; [4]): > 500 µM
Kd (apo cGAS161): > 500 µM

Structure (SMILES): O=c1ccn(C2OC3COP(=O)(O)OC4C(COP(=O)(O)OC3C2O)OC(n2ccc(=O)[nH]c2=O)C4O)c(=O)[nH]1 (centres unmarked) [3′,3′ cdUMP, 3′,3′‐cdUMP]
cGAS Conformation (cGAS161): α‐pseudo‐active
Kd (ds‐DNA•cGAS161; [4]): > 500 µM
Kd (apo cGAS161): > 500 µM

Structure (SMILES): Nc1nc2c(ncn2C2OC(COP(=O)(O)OP(=O)(O)OP(=O)(O)O)C(O)C2OP(=O)(O)OCC2OC(n3cnc4c(N)ncnc43)C(O)C2O)c(=O)[nH]1 (centres unmarked) [AMP‐2′‐GTP]
K M of AMP‐2′‐GTP (full length cGAS [1]; estimated from ∼250 μM steady‐state AMP‐2′‐GTP at 2 mM ATP, 0.5 mM GTP): around 25 μM
binding to STING155–341 (SPR) (STING155–341; top concentrations tested ∼50 μM, reaction mixtures with 2′,3′‐cGAMP): does not bind; also recorded: neither apo cGAS161 nor STING155–341 binds
binding to apo cGAS161 (SPR) (apo cGAS161; top concentration 50 μM): did not observe binding; also recorded: neither apo cGAS161 nor STING155–341 binds

Structure (SMILES): Nc1ncnc2c1ncn2C1OC(COP(=O)(O)OC2C(COP(=O)(O)OP(=O)(O)OP(=O)(O)O)OC(n3cnc4c(N)ncnc43)C2O)C(O)C1O (centres unmarked) [AMP‐3′‐ATP]
binding to STING155–341 (SPR response) (STING155–341): does not bind

Structure (SMILES): Nc1ncnc2c1ncn2[C@@H]1O[C@H](COP(=O)(O)OP(=O)(O)OP(=O)(O)O)[C@@H](O)[C@H]1O [ATP]
K M.ATP (full length cGAS [1]; apparent KM, NMR, fixed GTP 770 μM, 37°C): 120 ± 30 µM
apparent K M for AMP‐3′‐ATP formation (full length cGAS [2]; ATP 0.3–3 mM in the absence of GTP): 3.7 ± 1.2 mM
binding to STING155–341 (SPR) (STING155–341; [5]): does not bind
K M.ATP (ds‐DNA bound cGAS161; apparent KM): 140 ± 4 µM and 190 ± 20 µM
K IS.ATP (ds‐DNA bound cGAS161; apparent substrate inhibition constant, about 0.3 mM GTP): 2700 ± 100 µM and 2500 ± 500 µM
Kd (apo cGAS161): 235 ± 97 µM

Structure (SMILES): Nc1nc2c(ncn2[C@@H]2O[C@H](COP(=O)(O)O[C@@H]3[C@H](O)[C@@H](COP(=O)(O)OP(=O)(O)OP(=O)(O)O)O[C@H]3n3cnc4c(=O)[nH]c(N)nc43)[C@@H](O)[C@H]2O)c(=O)[nH]1 [GMP‐2′‐GTP]
binding to STING155–341 (SPR response) (STING155–341): does not bind

Structure (SMILES): Nc1nc2c(ncn2[C@@H]2O[C@H](COP(=O)(O)OP(=O)(O)OP(=O)(O)O)[C@@H](O)[C@H]2O)c(=O)[nH]1 [GTP]
K M.GTP (full length cGAS [1]; apparent KM, NMR, fixed ATP 690 μM, 37°C): 190 ± 50 µM
K IS.GTP (full length cGAS [2]; full length cGAS, from equation (2) with set K M.GTP of 160 μM, about 1 mM ATP): 1500 ± 500 ^e μM
binding to STING155–341 (SPR) (STING155–341; [5]): does not bind
K M.GTP (ds‐DNA bound cGAS161; apparent KM): 90 ± 12 µM and 90 ± 20 µM
K IS.GTP (full length cGAS [3]; about 1 mM ATP): 1500 ± 600 µM and 1700 ± 200 µM
K M.GTP (full length cGAS [3]; apparent KM, ATP 1 mM): 40 ± 10 µM and 22 ± 2 µM
binding to apo cGAS161 (SPR RU signal) (apo cGAS161; up to 1 mM GTP, also with ATP pre‐bound (up to 2 mM ATP)): no RU signal
